Test results from ChEMBL document CHEMBL4130359, “Indazole-based ligands for estrogen-related receptor α as potential anti-diabetic agents” (Eur J Med Chem, 2017).
Calls of active or inactive are those of the source. The calls are words filed in the database; no cut-off is given here.

What was measured:
[1] = biological target: Steroid hormone receptor ERR2 (Homo sapiens, UniProt O95718); experiment: Antagonist activity at recombinant GST-tagged human ERRbeta LBD assessed as inhibition of fluorescein-labeled coactivator peptide recruitment preincubated with enzyme followed by coactivator addition by LanthaScreen TR-FRET assay
[2] = biological target: Oxysterols receptor LXR-beta (Homo sapiens, UniProt P55055); experiment: Agonist activity at recombinant GST-tagged human LXRbeta LBD assessed as fluorescein-labeled coactivator peptide recruitment preincubated with enzyme followed by coactivator addition by LanthaScreen TR-FRET assay
Rattus norvegicus [3] = experiment: Effect on PIAS1 gene expression in epididymal white adipose tissue of Zucker rat sub-chronic fa/fa prediabetic model at 10 mg/kg, po qd for 15 days by microarray analysis relative to control; type: functional
Rattus norvegicus [4] = experiment: Antidiabetic activity in Zucker rat sub-chronic fa/fa prediabetic model assessed as reduction in blood glucose AUC (0 to 120 min) at 10 mg/kg, po qd for 31 days measured on day 29 post dose by OGTT relative to control; type: functional; design: scale not given: the % may be the effect or the level left
Rattus norvegicus [5] = experiment: Effect on ACAT1 gene expression in epididymal white adipose tissue of Zucker rat sub-chronic fa/fa prediabetic model at 10 mg/kg, po qd for 15 days by microarray analysis relative to control; type: functional
Rattus norvegicus [6] = experiment: Effect on IMPA2 gene expression in epididymal white adipose tissue of Zucker rat sub-chronic fa/fa prediabetic model at 10 mg/kg, po qd for 15 days by microarray analysis relative to control; type: functional
[7] = Cmax in Zucker rat sub-chronic fa/fa prediabetic model at 1 mg/kg, po qd measured on day 1 post dose; type: ADME, organism-based; design: dose 1 mg/kg, route oral; conditions: in vivo
Rattus norvegicus [8] = experiment: Toxicity in Zucker rat sub-chronic fa/fa prediabetic model assessed as body weight at 3 mg/kg, po qd for 29 days measured on day 29 post last dose (reference value: 533 +/- 10 g); type: organism-based; conditions: in vivo, 696 h
Rattus norvegicus [9] = experiment: Effect on NDUFS2 gene expression in epididymal white adipose tissue of Zucker rat sub-chronic fa/fa prediabetic model at 10 mg/kg, po qd for 15 days by microarray analysis relative to control; type: functional
Rattus norvegicus [10] = experiment: Toxicity in Zucker rat sub-chronic fa/fa prediabetic model assessed as increase in body weight at 10 mg/kg, po qd during 10 days study; type: organism-based; conditions: in vivo, 240 h
Rattus norvegicus [11] = experiment: Toxicity in Zucker rat sub-chronic fa/fa prediabetic model assessed as serum creatinine level at 1 mg/kg, po qd for 31 days measured on day 32 (reference value: 0.71 +/- 0.07 mg/dl); type: organism-based; conditions: in vivo, 744 h
Rattus norvegicus [12] = experiment: Effect on LPIN2 gene expression in epididymal white adipose tissue of Zucker rat sub-chronic fa/fa prediabetic model at 10 mg/kg, po qd for 15 days by microarray analysis relative to control; type: functional
Rattus norvegicus [13] = type: functional, Zucker
Rattus norvegicus [14] = experiment: Increase in ADIPOQ mRNA expression in epididymal white adipose tissue of Zucker rat sub-chronic fa/fa prediabetic model at 10 mg/kg, po qd for 15 days by RT-PCR method; type: functional, organism-based
[15] = AUC (0 to 24 hrs) in […] model at 50 mg/kg, po qd for 28 days measured on day 28 post last dose; type: ADME, organism-based; design: dose 50 mg/kg, time < 24 hr, route oral; conditions: in vivo
Rattus norvegicus [16] = experiment: Effect on PRKD3 gene expression in epididymal white adipose tissue of Zucker rat sub-chronic fa/fa prediabetic model at 10 mg/kg, po qd for 15 days by microarray analysis relative to control; type: functional
Rattus norvegicus [17] = experiment: Effect on PLCB1 gene expression in epididymal white adipose tissue of Zucker rat sub-chronic fa/fa prediabetic model at 10 mg/kg, po qd for 15 days by microarray analysis relative to control; type: functional
Rattus norvegicus [18] = experiment: Effect on CHUK gene expression in epididymal white adipose tissue of Zucker rat sub-chronic fa/fa prediabetic model at 10 mg/kg, po qd for 15 days by microarray analysis relative to control; type: functional
Rattus norvegicus [19] = experiment: Toxicity in […] chronic ob/ob model assessed as brown adipose tissue weight at 3 mg/kg, po qd for 31 days measured on day 32 (reference value: 0.59 +/- 0.05 g); type: organism-based; conditions: in vivo, 744 h
Rattus norvegicus [20] = experiment: Effect on NDUFS1 gene expression in epididymal white adipose tissue of Zucker rat sub-chronic fa/fa prediabetic model at 10 mg/kg, po qd for 15 days by microarray analysis relative to control; type: functional
[21] = AUC (0 to 24 hrs) in Zucker rat sub-chronic fa/fa prediabetic model at 10 mg/kg, po qd for 26 days measured on day 26 post last dose; type: ADME, organism-based; design: dose 10 mg/kg, time < 24 hr, route oral; conditions: in vivo
[22] = biological target: Retinoic acid receptor RXR-alpha (Homo sapiens, UniProt P19793); experiment: Antagonist activity at recombinant GST-tagged human RXRalpha LBD assessed as inhibition of 9-cis-retinoic acid-induced fluorescein-labeled coactivator peptide recruitment preincubated with enzyme followed by coactivator addition by LanthaScreen TR-FRET assay
Rattus norvegicus [23] = experiment: Effect on NFKBIB gene expression in epididymal white adipose tissue of Zucker rat sub-chronic fa/fa prediabetic model at 10 mg/kg, po qd for 15 days by microarray analysis relative to control; type: functional
Rattus norvegicus [24] = experiment: Effect on SUCLG1 gene expression in epididymal white adipose tissue of Zucker rat sub-chronic fa/fa prediabetic model at 10 mg/kg, po qd for 15 days by microarray analysis relative to control; type: functional
[25] = Drug uptake in heart of Zucker rat sub-chronic fa/fa prediabetic model at 12.5 mg/kg, po qd for 11 days; type: ADME, organism-based; conditions: read-out: Drug uptake
Rattus norvegicus [26] = experiment: Effect on COX6A2 gene expression in epididymal white adipose tissue of Zucker rat sub-chronic fa/fa prediabetic model at 10 mg/kg, po qd for 15 days by microarray analysis relative to control; type: functional
Rattus norvegicus [27] = experiment: Effect on PPP2R5B gene expression in epididymal white adipose tissue of Zucker rat sub-chronic fa/fa prediabetic model at 10 mg/kg, po qd for 15 days by microarray analysis relative to control; type: functional
[28] = AUC (0 to 24 hrs) in CD-1 mouse at 20 mg/kg administered via oral gavage by LC-MS analysis; type: ADME, organism-based; design: dose 20 mg/kg, time < 24 hr, route oral; conditions: in vivo
Rattus norvegicus [29] = experiment: Effect on NFATC4 gene expression in epididymal white adipose tissue of Zucker rat sub-chronic fa/fa prediabetic model at 10 mg/kg, po qd for 15 days by microarray analysis relative to control; type: functional
Rattus norvegicus [30] = experiment: Toxicity in […] chronic ob/ob model assessed as change in body weight at 50 mg/kg, po qd for 28 days measured on day 1 to 28 during compound dosing (reference value: 9.9 +/- 1.27 g); type: organism-based; conditions: in vivo, 672 h

Oxysterols receptor LXR-beta, sequence (P55055 whole entry, the tested form may be a part): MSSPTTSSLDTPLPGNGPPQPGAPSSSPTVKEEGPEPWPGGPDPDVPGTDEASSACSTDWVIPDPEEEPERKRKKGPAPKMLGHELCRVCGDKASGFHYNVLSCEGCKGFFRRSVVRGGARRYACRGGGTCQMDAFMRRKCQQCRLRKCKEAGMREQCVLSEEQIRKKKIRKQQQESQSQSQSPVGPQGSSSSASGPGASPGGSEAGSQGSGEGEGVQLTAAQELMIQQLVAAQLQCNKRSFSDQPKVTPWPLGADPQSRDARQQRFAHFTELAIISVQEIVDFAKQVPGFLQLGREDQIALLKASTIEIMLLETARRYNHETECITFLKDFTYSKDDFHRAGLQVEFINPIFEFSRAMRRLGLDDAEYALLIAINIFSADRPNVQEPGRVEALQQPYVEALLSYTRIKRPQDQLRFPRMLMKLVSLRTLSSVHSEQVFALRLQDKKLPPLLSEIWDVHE
Retinoic acid receptor RXR-alpha, sequence (P19793 whole entry, the tested form may be a part): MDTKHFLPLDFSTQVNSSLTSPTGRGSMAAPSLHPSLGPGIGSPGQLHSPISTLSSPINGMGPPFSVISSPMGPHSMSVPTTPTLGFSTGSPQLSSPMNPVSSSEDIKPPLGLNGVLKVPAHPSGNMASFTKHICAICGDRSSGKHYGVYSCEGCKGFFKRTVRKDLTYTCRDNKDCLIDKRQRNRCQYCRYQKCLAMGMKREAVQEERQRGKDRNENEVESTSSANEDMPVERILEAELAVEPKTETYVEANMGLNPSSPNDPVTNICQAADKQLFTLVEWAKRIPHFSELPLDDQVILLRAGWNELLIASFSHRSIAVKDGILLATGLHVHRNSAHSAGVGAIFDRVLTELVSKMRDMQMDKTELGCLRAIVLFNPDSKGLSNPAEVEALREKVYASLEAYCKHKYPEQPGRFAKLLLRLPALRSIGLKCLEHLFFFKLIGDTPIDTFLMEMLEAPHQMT
Steroid hormone receptor ERR2, sequence (O95718 whole entry, the tested form may be a part): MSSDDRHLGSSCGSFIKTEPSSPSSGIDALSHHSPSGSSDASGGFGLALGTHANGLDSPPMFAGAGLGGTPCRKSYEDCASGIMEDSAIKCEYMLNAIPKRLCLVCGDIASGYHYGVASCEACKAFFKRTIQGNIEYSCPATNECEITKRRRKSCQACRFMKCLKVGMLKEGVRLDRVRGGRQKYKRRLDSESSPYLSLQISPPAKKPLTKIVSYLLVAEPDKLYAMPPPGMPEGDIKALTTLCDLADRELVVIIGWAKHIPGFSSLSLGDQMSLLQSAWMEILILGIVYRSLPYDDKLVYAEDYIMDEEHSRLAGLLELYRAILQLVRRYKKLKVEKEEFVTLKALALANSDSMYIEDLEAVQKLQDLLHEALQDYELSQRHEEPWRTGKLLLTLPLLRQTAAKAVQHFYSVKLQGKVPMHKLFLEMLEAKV

Q: With `CN1CC[C@@H](N2C(=O)S/C(=C\c3ccc4c(cnn4Cc4ccc(Cl)cc4C(F)(F)F)c3)C2=O)[C@H](F)C1` as the molecule, how does the IC50 [1] read?
A: The IC50 was over 10 µM.

Q: What about the EC50 [2] of the same molecule?
A: The EC50 was over 10 µM.

Q: And the “fold change (FC)” value (Rattus norvegicus [3])?
A: The value was -1.323.

Q: And the Activity (Rattus norvegicus [4])?
A: Its Activity is 55%.

Q: And the “fold change (FC)” value (Rattus norvegicus [5])?
A: Its value is 1.634.

Q: What about the “fold change (FC)” value (Rattus norvegicus [6]) of the same molecule?
A: The value was 1.526.

Q: What about the Cmax [7] of the same molecule?
A: Its Cmax is 262 ng/mL.

Q: And the Activity (Rattus norvegicus [8])?
A: Its Activity is 561 g.

Q: And the “fold change (FC)” value (Rattus norvegicus [9])?
A: Its value is 1.224.

Q: What about the Activity (Rattus norvegicus [10]) of the same molecule?
A: The Activity was “Non-Toxic”.

Q: And the Activity (Rattus norvegicus [11])?
A: Its Activity is 0.66 mg/dL.

Q: What about the “fold change (FC)” value (Rattus norvegicus [12]) of the same molecule?
A: Its value is 1.548.

Q: And the Activity (Rattus norvegicus [13])?
A: The Activity was 27017 mg·min/dL.

Q: What about the Activity (Rattus norvegicus [14]) of the same molecule?
A: The Activity was “Active”.

Q: What about the AUC at 24 h [15] of the same molecule?
A: The AUC at 24 h was 31600 ng·h/mL.

Q: And the “fold change (FC)” value (Rattus norvegicus [16])?
A: The value was -1.247.

Q: And the “fold change (FC)” value (Rattus norvegicus [17])?
A: Its value is 1.58.

Q: What about the “fold change (FC)” value (Rattus norvegicus [18]) of the same molecule?
A: The value was 1.379.

Q: And the Activity (Rattus norvegicus [19])?
A: Its Activity is 0.61 g.

Q: And the “fold change (FC)” value (Rattus norvegicus [20])?
A: The value was 1.561.

Q: What about the AUC at 24 h [21] of the same molecule?
A: Its AUC at 24 h is 23900 ng·h/mL.

Q: And the IC50 [22]?
A: The IC50 was over 10 µM.

Q: And the “fold change (FC)” value (Rattus norvegicus [23])?
A: The value was 1.31.

Q: And the “fold change (FC)” value (Rattus norvegicus [24])?
A: The value was 1.401.

Q: What about the concentration at 264 h [25] of the same molecule?
A: Its concentration at 264 h is 1700 ng/g.

Q: And the “fold change (FC)” value (Rattus norvegicus [26])?
A: The value was 1.35.

Q: And the “fold change (FC)” value (Rattus norvegicus [27])?
A: The value was 1.276.

Q: And the AUC(0-t) at 24 h [28]?
A: The AUC(0-t) at 24 h was 14600 ng·h/mL.

Q: And the “fold change (FC)” value (Rattus norvegicus [29])?
A: Its value is 1.383.

Q: And the Activity (Rattus norvegicus [30])?
A: The Activity was 9.4 g.
